Measurements taken from patent US20230096766A1, “AMINO ACID HAVING FUNCTIONAL GROUP CAPABLE OF INTERMOLECULAR HYDROGEN BONDING, PEPTIDE COMPOUND CONTAINING SAME AND METHOD FOR PRODUCTION THEREOF” (Chugai Seiyaku Kabushiki Kaisha, priority 2018, published 2023).
*1 amine or outer side, *2 acyl side, *3 side chain or, on linkers, in order; H or OH if unused. Where a SMILES comes first, the peptide text is derived from it. Bridges are numbered along the chain shown (N, C = ends). [ ]: non-standard residue; d: D form. The star is where a group is joined. ξ: configuration not given here. Phe(3-CONHMe,4-OMe) = CNC(=O)c1cc(C[C@H](N)C(=O)O)ccc1OC; Phe(3-OMe,4-CONHMe) = CNC(=O)c1ccc(C[C@H](N)C(=O)O)cc1OC; NMePhe(3-Cl) = CN[C@@H](Cc1cccc(Cl)c1)C(=O)O; X12 = O=C([C@H](CCCC(O)C(F)(F)F)N[*:1])[*:2]; NMehPhe = CN[C@@H](CCc1ccccc1)C(=O)O; NMeF = CN[C@@H](Cc1ccccc1)C(=O)O; NMeI = CC[C@H](C)[C@H](NC)C(=O)O; Butyl(3-Me,3-OH) = CC(C)(O)CC*; CH2CH(OH)CF3 = OC(C*)C(F)(F)F; CH2CONHtBu = CC(C)(C)NC(=O)C*; NMeL = CN[C@@H](CC(C)C)C(=O)O; Propyl(2R-OH) = C[C@@H](O)C*; Butyl(3S-OH) = C[C@H](O)CC*; NMeV = CN[C@H](C(=O)O)C(C)C; NMeAbu = CC[C@H](NC)C(=O)O; NMeA = CN[C@@H](C)C(=O)O; Piperidide = C1CCN(*)CC1; Me2NCH2CH2 = CN(C)CC*; NBuGly = CCCCNCC(=O)O; Isopentyl = CC(C)CC*; NPrGly = CCCNCC(=O)O; ξS = NC(CO)C(=O)O; X3 = C[C@H](O)C*; Sar = CNCC(=O)O; tBu = CC(C)(C)*

Assay: in vitro
Conditions: human, Caco-2, Caco-2

Molecule `CCCN1CC(=O)N(C)[C@@H](C(C)C)C(=O)N[C@H](C(=O)N2CCCCC2)CC(=O)N(C)[C@@H](C)C(=O)N[C@@H](CC(C)C)C(=O)N(C)[C@@H](CC(C)C)C(=O)N(C)[C@@H](Cc2ccccc2)C(=O)NC(COCCN(C)C)C(=O)N(C)[C@@H](Cc2ccccc2)C(=O)N(C)[C@@H](CC(C)C)C(=O)N[C@@H]([C@@H](C)O)C1=O` (stereo partly drawn) [pd57] ([NMeA]L[NMeL][NMeF][ξS](Me2NCH2CH2)[NMeF][NMeL]T[NPrGly][NMeV]D-Piperidide; lactam N-11) has a Papp of 0.12 ×10⁻⁶ cm/s.

Same assay, conditions: human, Caco-2, Caco-2 (cm/sec)

`CC[C@H](C)[C@@H]1NC(=O)[C@H](CC(C)C)N(C)C(=O)CN(C)C(=O)C[C@@H](C(=O)N2CCCCC2)NC(=O)[C@H](CC(C)C)N(C)C(=O)[C@H](Cc2ccc(OC)c(C(=O)NC)c2)NC(=O)[C@H](CC(C)C)N(C)C(=O)[C@H](Cc2cccc(Cl)c2)N(C)C(=O)CN(C)C(=O)[C@H]([C@@H](C)O)NC(=O)[C@H](CC(C)C)N(C)C1=O` [AP42] ([Sar][NMeL]I[NMeL]T[Sar][NMePhe(3-Cl)][NMeL][Phe(3-CONHMe,4-OMe)][NMeL]D-Piperidide; lactam N-11) and `CC[C@H](C)[C@@H]1NC(=O)[C@H](CC(C)C)N(C)C(=O)CN(C)C(=O)C[C@@H](C(=O)N2CCCCC2)NC(=O)[C@H](CC(C)C)N(C)C(=O)[C@H](Cc2ccc(C(=O)NC)c(OC)c2)NC(=O)[C@H](CC(C)C)N(C)C(=O)[C@H](Cc2cccc(Cl)c2)N(C)C(=O)CN(C)C(=O)[C@H]([C@@H](C)O)NC(=O)[C@H](CC(C)C)N(C)C1=O` [AP34] ([Sar][NMeL]I[NMeL]T[Sar][NMePhe(3-Cl)][NMeL][Phe(3-OMe,4-CONHMe)][NMeL]D-Piperidide; lactam N-11) are within 1.5-fold of each other in Papp: 0.25 ×10⁻⁶ cm/s for the first, 0.2 ×10⁻⁶ cm/s for the second.

Going from `CCCN1CC(=O)N(C)[C@@H](CC(C)C)C(=O)N[C@@H](COCC(=O)NC(C)(C)C)C(=O)N(C)[C@@H](CC(C)C)C(=O)N(C)[C@@H](C)C(=O)N[C@H](C(=O)N2CCCCC2)CC(=O)N[C@H](CC(C)C)C(=O)N(C)[C@@H](CC(C)C)C(=O)N[C@@H](Cc2ccccc2)C(=O)N(C)[C@@H](CCc2ccccc2)C(=O)N[C@@H]([C@@H](C)O)C1=O` [AP13] ([dL][NMeL]F[NMehPhe]T[NPrGly][NMeL]S(CH2CONHtBu)[NMeL][NMeA]D-Piperidide; lactam N-11) to `CC(C)C[C@@H]1NC(=O)[C@H](Cc2ccccc2)N(C)C(=O)[C@@H](C(C)C)NC(=O)C[C@@H](C(=O)N2CCCCC2)NC(=O)[C@H](CC(C)C)N(C)C(=O)[C@H](Cc2cccc(Cl)c2)N(C)C(=O)[C@H](COCCC(C)(C)O)NC(=O)[C@H](CC(C)C)N(C)C(=O)CN(C)C(=O)[C@H]([C@@H](C)O)NC(=O)[C@H](C(C)C)N(C)C1=O` [AP52] ([dV][NMeF]L[NMeV]T[Sar][NMeL]S(Butyl(3-Me,3-OH))[NMePhe(3-Cl)][NMeL]D-Piperidide; lactam N-11), the Papp rises from 0.32 ×10⁻⁶ cm/s to 1.7 ×10⁻⁶ cm/s (5.3-fold).

First: CCCCN1CC(=O)N(C)[C@@H](CC(C)C)C(=O)N[C@H](C(=O)N2CCCCC2)CC(=O)N(C)[C@@H](C)C(=O)N[C@@H](COC[C@@H](C)O)C(=O)N(C)[C@@H](CC(C)C)C(=O)N(C)[C@@H](Cc2cccc(Cl)c2)C(=O)N[C@@H](CC(C)C)C(=O)N(C)[C@@H](Cc2ccccc2)C(=O)N(C)[C@@H]([C@@H](C)CC)C(=O)N[C@@H]([C@@H](C)O)C1=O [AP75] ([NMeA]S(Propyl(2R-OH))[NMeL][NMePhe(3-Cl)]L[NMeF][NMeI]T[NBuGly][NMeL]D-Piperidide; lactam N-11)
Second: CCCCN1CC(=O)N(C)[C@@H](Cc2cccc(Cl)c2)C(=O)N(C)[C@@H](CC(C)C)C(=O)N[C@@H](COCC[C@H](C)O)C(=O)N(C)[C@@H](CC(C)C)C(=O)N[C@H](C(=O)N2CCCCC2)CC(=O)N(C)CC(=O)N(C)[C@@H](Cc2ccccc2)C(=O)N[C@@H](C(C)C)C(=O)N(C)[C@@H](CC(C)C)C(=O)N[C@@H]([C@@H](C)O)C1=O [AP106] ([Sar][NMeF]V[NMeL]T[NBuGly][NMePhe(3-Cl)][NMeL]S(Butyl(3S-OH))[NMeL]D-Piperidide; lactam N-11)
The Papp of the first is 4.4-fold higher: 1.1 ×10⁻⁶ cm/s for the first, 0.25 ×10⁻⁶ cm/s for the second.

`CCCN1CC(=O)N(C)[C@@H](Cc2ccccc2)C(=O)N(C)[C@@H](CC(C)C)C(=O)N[C@@H](COCCC(C)C)C(=O)N(C)[C@@H](CC(C)C)C(=O)N[C@H](C(=O)N2CCCCC2)CC(=O)N(C)CC(=O)N(C)[C@@H](Cc2cccc(Cl)c2)C(=O)N[C@@H](COC[C@H](C)O)C(=O)N(C)[C@@H](CC(C)C)C(=O)N[C@@H]([C@@H](C)O)C1=O` [AP67] ([Sar][NMePhe(3-Cl)]S(X3)[NMeL]T[NPrGly][NMeF][NMeL]S(Isopentyl)[NMeL]D-Piperidide; lactam N-11) gave a Papp of 0.71 ×10⁻⁶ cm/s.

Same assay, conditions: human, Caco-2, Caco-2 (membrane permeability)

`CCCCN1CC(=O)N(C)[C@@H](Cc2ccccc2)C(=O)N(C)[C@@H](CC(C)C)C(=O)N[C@@H](CCCC(O)C(F)(F)F)C(=O)N(C)[C@@H](CC(C)C)C(=O)N[C@H](C(=O)N2CCCCC2)CC(=O)N(C)CC(=O)N(C)[C@@H](Cc2ccccc2)C(=O)N[C@@H]([C@@H](C)CC)C(=O)N(C)[C@@H](CC(C)C)C(=O)N[C@@H]([C@@H](C)O)C1=O` (stereo partly drawn) [Compound D07] ([Sar][NMeF]I[NMeL]T[NBuGly][NMeF][NMeL][X12][NMeL]D-Piperidide; lactam N-11) and `CC[C@H](C)[C@H]1C(=O)N[C@@H]([C@@H](C)O)C(=O)N(C)CC(=O)N(C)[C@@H](CC(C)C)C(=O)N[C@H](C(=O)N2CCCCC2)CC(=O)N(C)[C@@H](C(C)C)C(=O)N[C@@H](CCCC(O)C(F)(F)F)C(=O)N(C)[C@@H](CC(C)C)C(=O)N(C)[C@@H](Cc2ccccc2)C(=O)N[C@@H](CC(C)C)C(=O)N(C)[C@@H](Cc2ccccc2)C(=O)N1C` (stereo partly drawn) [Compound D08] ([NMeV][X12][NMeL][NMeF]L[NMeF][NMeI]T[Sar][NMeL]D-Piperidide; lactam N-11) are within 1.5-fold of each other in Papp: 0.37 ×10⁻⁶ cm/s for the first, 0.53 ×10⁻⁶ cm/s for the second.

First: CC[C@H](C)[C@H]1C(=O)N[C@@H]([C@@H](C)O)C(=O)N(C)CC(=O)N(C)[C@@H](CC(C)C)C(=O)N[C@H](C(=O)N2CCCCC2)CC(=O)N(C)[C@@H](C(C)C)C(=O)N[C@@H](CC(C)C)C(=O)N(C)[C@@H](CC(C)C)C(=O)N(C)[C@@H](Cc2ccccc2)C(=O)N[C@@H](COCC(O)C(F)(F)F)C(=O)N(C)[C@@H](Cc2ccccc2)C(=O)N1C (stereo partly drawn) [Compound C05] ([NMeV]L[NMeL][NMeF]S(CH2CH(OH)CF3)[NMeF][NMeI]T[Sar][NMeL]D-Piperidide; lactam N-11)
Second: CC[C@H](C)[C@@H]1NC(=O)[C@H](CC(C)C)N(C)C(=O)[C@H](COCC(O)C(F)(F)F)NC(=O)[C@H](Cc2ccccc2)N(C)C(=O)CN(C)C(=O)C[C@@H](C(=O)N2CCCCC2)NC(=O)[C@H](CC(C)C)N(C)C(=O)[C@H](COC(C)(C)C)NC(=O)[C@H](CC(C)C)N(C)C(=O)[C@H](Cc2ccccc2)N(C)C(=O)CN(C)C1=O (stereo partly drawn) [Compound C17] ([Sar][NMeF]S(CH2CH(OH)CF3)[NMeL]I[Sar][NMeF][NMeL]S(tBu)[NMeL]D-Piperidide; lactam N-11)
The Papp of the first is 7.2-fold lower: 0.57 ×10⁻⁶ cm/s for the first, 4.1 ×10⁻⁶ cm/s for the second.

`CCCCN1CC(=O)N(C)[C@@H](Cc2ccccc2)C(=O)N(C)[C@@H](CC(C)C)C(=O)N[C@@H](COC(C)(C)C)C(=O)N(C)[C@@H](CC(C)C)C(=O)N[C@H](C(=O)N2CCCCC2)CC(=O)N(C)CC(=O)N(C)[C@@H](Cc2ccccc2)C(=O)N[C@@H](C(C)C)C(=O)N(C)[C@@H](CC)C(=O)N[C@@H](COCC(O)C(F)(F)F)C1=O` (stereo partly drawn) [Compound C16] ([Sar][NMeF]V[NMeAbu]S(CH2CH(OH)CF3)[NBuGly][NMeF][NMeL]S(tBu)[NMeL]D-Piperidide; lactam N-11) gave a Papp of 0.41 ×10⁻⁶ cm/s.
